ChEMBL document CHEMBL1136175, “Synthesis and antimycobacterial activity of capuramycin analogues. Part 2: acylated derivatives of capuramycin-related compounds” (Bioorg Med Chem Lett, 2003)
In brackets after ≈: the same amount, converted by molar mass.

Legend:
[1] = test system: Mycobacterium intracellulare; assay: Antimycobacterial activity against Mycobacterium intracellular ATCC 1954 E-3; format: functional
[2] = test system: Mycobacterium kansasii; assay: Antimycobacterial activity against Mycobacterium kansasii ATCC 12478; format: functional
[3] = test system: Mycolicibacterium smegmatis; assay: Antimycobacterial activity was determined against Mycobacterium smegmatis SANK75075; format: functional
[4] = molecular target: T1, Phospho-N-acetylmuramoyl-pentapeptide-transferase (Escherichia coli K-12, UniProt P0A6W3); assay: Inhibitory concentration required against Translocase I
T1 sequence (P0A6W3 whole entry): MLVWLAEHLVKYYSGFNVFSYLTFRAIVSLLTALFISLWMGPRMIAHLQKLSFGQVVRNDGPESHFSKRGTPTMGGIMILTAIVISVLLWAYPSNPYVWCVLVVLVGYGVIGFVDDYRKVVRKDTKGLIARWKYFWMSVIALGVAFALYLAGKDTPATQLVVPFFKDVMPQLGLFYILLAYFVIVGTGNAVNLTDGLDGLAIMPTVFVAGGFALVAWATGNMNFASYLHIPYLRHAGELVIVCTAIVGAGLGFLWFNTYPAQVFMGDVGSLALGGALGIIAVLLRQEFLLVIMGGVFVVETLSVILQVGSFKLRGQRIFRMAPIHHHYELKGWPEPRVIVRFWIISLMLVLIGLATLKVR

[5] = test system: Mycobacterium avium; assay: Antimycobacterial activity against Mycobacterium avium NIHJ1605; format: functional
[6] = molecular target: T1, Phospho-N-acetylmuramoyl-pentapeptide-transferase; assay: Inhibitory concentration against translocase-I

CCCCCCCCCCCCCC(=O)O[C@@H]1[C@H](OC)[C@@H]([C@@H](O[C@H]2OC(C(=O)N[C@H]3CCC[C@@H](C)NC3=O)=C[C@H](O)[C@@H]2O)C(N)=O)O[C@H]1n1ccc(=O)[nH]c1=O
MIC [1]: 0.125 µg/mL (≈ 0.157 µM)
MIC [2]: 4 µg/mL (≈ 5.04 µM)
MIC [3]: 3.13 µg/mL (≈ 3.94 µM)
IC50 [4]: 5670 nM
MIC [5]: < 0.063 µg/mL

CCCCCCCC(=O)O[C@@H]1[C@H](OC)[C@@H]([C@@H](O[C@H]2OC(C(=O)N[C@H]3CCC[C@@H](C)NC3=O)=C[C@H](O)[C@@H]2O)C(N)=O)O[C@H]1n1ccc(=O)[nH]c1=O
MIC [1]: 1 µg/mL (≈ 1.41 µM)
MIC [2]: 1 µg/mL (≈ 1.41 µM)
MIC [3]: 25 µg/mL (≈ 35.2 µM)
IC50 [4]: 268 nM
MIC [5]: 2 µg/mL (≈ 2.82 µM)

CCCCCCCCC(=O)O[C@@H]1[C@H](OC)[C@@H]([C@@H](O[C@H]2OC(C(=O)Nc3ccccc3)=C[C@H](O)[C@@H]2O)C(N)=O)O[C@H]1n1ccc(=O)[nH]c1=O
MIC [1]: 1 µg/mL (≈ 1.48 µM)
MIC [2]: 1 µg/mL (≈ 1.48 µM)
MIC [3]: 12.5 µg/mL (≈ 18.5 µM)
IC50 [4]: 1040 nM
MIC [5]: 0.25 µg/mL (≈ 0.371 µM)

CCCCCCCCCCCCCCCCOC(=O)O[C@@H]1[C@H](OC)[C@@H]([C@@H](O[C@H]2OC(C(=O)N[C@H]3CCC[C@@H](C)NC3=O)=C[C@H](O)[C@@H]2O)C(N)=O)O[C@H]1n1ccc(=O)[nH]c1=O
MIC [1]: 2 µg/mL (≈ 2.35 µM)
MIC [2]: 8 µg/mL (≈ 9.39 µM)
MIC [3]: > 100 µg/mL
IC50 [4]: > 2930 nM
MIC [5]: 0.5 µg/mL (≈ 0.587 µM)

CCCCCCCCCCCC(=O)O[C@@H]1[C@H](OC)[C@@H]([C@@H](O[C@H]2OC(C(=O)Nc3ccccc3)=C[C@H](O)[C@@H]2O)C(N)=O)O[C@H]1n1ccc(=O)[nH]c1=O
MIC [1]: 4 µg/mL (≈ 5.58 µM)
MIC [2]: 8 µg/mL (≈ 11.2 µM)
MIC [3]: 6.25 µg/mL (≈ 8.72 µM)
IC50 [4]: > 3490 nM
MIC [5]: 1 µg/mL (≈ 1.4 µM)

CCCCCCCCCCCC(=O)O[C@@H]1[C@H](OC)[C@@H]([C@@H](O[C@H]2OC(C(=O)N[C@H]3CCC[C@@H](C)NC3=O)=C[C@H](O)[C@@H]2O)C(N)=O)O[C@H]1n1ccc(=O)[nH]c1=O
MIC [1]: < 0.063 µg/mL
MIC [2]: 0.5 µg/mL (≈ 0.653 µM)
MIC [3]: 1.56 µg/mL (≈ 2.04 µM)
IC50 [4]: 2870 nM
MIC [5]: < 0.063 µg/mL

CCCCCCCCCCCCCCCC(=O)O[C@@H]1[C@H](OC)[C@@H]([C@@H](O[C@H]2OC(C(=O)Nc3ccccc3)=C[C@H](O)[C@@H]2O)C(N)=O)O[C@H]1n1ccc(=O)[nH]c1=O
MIC [1]: 16 µg/mL (≈ 20.7 µM)
MIC [2]: 32 µg/mL (≈ 41.4 µM)
MIC [3]: 12.5 µg/mL (≈ 16.2 µM)
IC50 [4]: > 3230 nM
MIC [5]: 2 µg/mL (≈ 2.59 µM)

CCCCCCCCCC(=O)O[C@@H]1[C@H](OC)[C@@H]([C@@H](O[C@H]2OC(C(=O)N[C@H]3CCCCNC3=O)=C[C@H](O)[C@@H]2O)C(N)=O)O[C@H]1n1ccc(=O)[nH]c1=O
MIC [1]: 0.25 µg/mL (≈ 0.345 µM)
MIC [2]: 1 µg/mL (≈ 1.38 µM)
MIC [3]: 12.5 µg/mL (≈ 17.3 µM)
IC50 [6]: 414 nM
MIC [5]: 0.5 µg/mL (≈ 0.691 µM)

CCCCCCCO[C@@H]1[C@H](OC)[C@@H]([C@@H](O[C@H]2OC(C(=O)N[C@H]3CCC[C@@H](C)NC3=O)=C[C@H](O)[C@@H]2O)C(N)=O)O[C@H]1n1ccc(=O)[nH]c1=O
MIC [1]: 4 µg/mL (≈ 5.87 µM)
MIC [2]: 32 µg/mL (≈ 46.9 µM)
MIC [3]: 100 µg/mL (≈ 147 µM)
IC50 [4]: 80.7 nM
MIC [5]: 32 µg/mL (≈ 46.9 µM)

CCCCCCC(=O)O[C@@H]1[C@H](OC)[C@@H]([C@@H](O[C@H]2OC(C(=O)N[C@H]3CCC[C@@H](C)NC3=O)=C[C@H](O)[C@@H]2O)C(N)=O)O[C@H]1n1ccc(=O)[nH]c1=O
MIC [1]: 1 µg/mL (≈ 1.44 µM)
MIC [2]: 2 µg/mL (≈ 2.87 µM)
MIC [3]: 50 µg/mL (≈ 71.9 µM)
IC50 [4]: 64.7 nM
MIC [5]: 4 µg/mL (≈ 5.75 µM)

CCCCC(=O)O[C@@H]1[C@H](OC)[C@@H]([C@@H](O[C@H]2OC(C(=O)N[C@H]3CCC[C@@H](C)NC3=O)=C[C@H](O)[C@@H]2O)C(N)=O)O[C@H]1n1ccc(=O)[nH]c1=O
MIC [1]: 2 µg/mL (≈ 3 µM)
MIC [2]: 16 µg/mL (≈ 24 µM)
MIC [3]: 100 µg/mL (≈ 150 µM)
IC50 [4]: 35.9 nM
MIC [5]: 32 µg/mL (≈ 47.9 µM)

CCCCCCCCOC(=O)O[C@@H]1[C@H](OC)[C@@H]([C@@H](O[C@H]2OC(C(=O)N[C@H]3CCC[C@@H](C)NC3=O)=C[C@H](O)[C@@H]2O)C(N)=O)O[C@H]1n1ccc(=O)[nH]c1=O
MIC [1]: 0.5 µg/mL (≈ 0.676 µM)
MIC [2]: 2 µg/mL (≈ 2.7 µM)
MIC [3]: 25 µg/mL (≈ 33.8 µM)
IC50 [4]: 676 nM
MIC [5]: 0.25 µg/mL (≈ 0.338 µM)

CCCCCCCCO[C@@H]1[C@H](OC)[C@@H]([C@@H](O[C@H]2OC(C(=O)N[C@H]3CCC[C@@H](C)NC3=O)=C[C@H](O)[C@@H]2O)C(N)=O)O[C@H]1n1ccc(=O)[nH]c1=O
MIC [1]: 2 µg/mL (≈ 2.87 µM)
MIC [2]: > 32 µg/mL
MIC [3]: 50 µg/mL (≈ 71.9 µM)
IC50 [4]: 216 nM
MIC [5]: 16 µg/mL (≈ 23 µM)

CCCCCCC(=O)O[C@@H]1[C@H](OC)[C@@H]([C@@H](O[C@H]2OC(C(=O)N[C@H]3CCCCNC3=O)=C[C@H](O)[C@@H]2O)C(N)=O)O[C@H]1n1ccc(=O)[nH]c1=O
MIC [3]: 25 µg/mL (≈ 36.7 µM)
IC50 [6]: 58.7 nM

CCCCCCC(=O)O[C@@H]1[C@H](OC)[C@@H]([C@@H](O[C@H]2OC(C(=O)Nc3ccccc3)=C[C@H](O)[C@@H]2O)C(N)=O)O[C@H]1n1ccc(=O)[nH]c1=O
MIC [1]: 1 µg/mL (≈ 1.55 µM)
MIC [2]: 0.5 µg/mL (≈ 0.773 µM)
MIC [3]: 25 µg/mL (≈ 38.7 µM)
IC50 [4]: 371 nM
MIC [5]: 0.5 µg/mL (≈ 0.773 µM)

CCCCCCO[C@@H]1[C@H](OC)[C@@H]([C@@H](O[C@H]2OC(C(=O)N[C@H]3CCC[C@@H](C)NC3=O)=C[C@H](O)[C@@H]2O)C(N)=O)O[C@H]1n1ccc(=O)[nH]c1=O
MIC [1]: 4 µg/mL (≈ 5.99 µM)
MIC [2]: 32 µg/mL (≈ 47.9 µM)
MIC [3]: 50 µg/mL (≈ 74.9 µM)
IC50 [4]: 59.9 nM
MIC [5]: 32 µg/mL (≈ 47.9 µM)

CCCCCCCCCCO[C@@H]1[C@H](OC)[C@@H]([C@@H](O[C@H]2OC(C(=O)N[C@H]3CCC[C@@H](C)NC3=O)=C[C@H](O)[C@@H]2O)C(N)=O)O[C@H]1n1ccc(=O)[nH]c1=O
MIC [1]: 4 µg/mL (≈ 5.53 µM)
MIC [2]: > 32 µg/mL
MIC [3]: 25 µg/mL (≈ 34.5 µM)
IC50 [4]: 884 nM
MIC [5]: 1 µg/mL (≈ 1.38 µM)

CCCCCCCCCC(=O)O[C@@H]1[C@H](OC)[C@@H]([C@@H](O[C@H]2OC(C(=O)Nc3ccccc3)=C[C@H](O)[C@@H]2O)C(N)=O)O[C@H]1n1ccc(=O)[nH]c1=O
MIC [1]: 1 µg/mL (≈ 1.45 µM)
MIC [2]: 2 µg/mL (≈ 2.9 µM)
MIC [3]: 6.25 µg/mL (≈ 9.07 µM)
IC50 [4]: 2760 nM
MIC [5]: 0.5 µg/mL (≈ 0.726 µM)

CCCCCC(=O)O[C@@H]1[C@H](OC)[C@@H]([C@@H](O[C@H]2OC(C(=O)N[C@H]3CCC[C@@H](C)NC3=O)=C[C@H](O)[C@@H]2O)C(N)=O)O[C@H]1n1ccc(=O)[nH]c1=O
MIC [1]: 2 µg/mL (≈ 2.93 µM)
MIC [2]: 2 µg/mL (≈ 2.93 µM)
MIC [3]: 50 µg/mL (≈ 73.3 µM)
IC50 [4]: 63.1 nM
MIC [5]: 16 µg/mL (≈ 23.5 µM)

CO[C@H]1[C@@H](O)[C@H](n2ccc(=O)[nH]c2=O)O[C@@H]1[C@@H](O[C@H]1OC(C(=O)Nc2ccccc2)=C[C@H](O)[C@@H]1O)C(N)=O
MIC [1]: 4 µg/mL (≈ 7.48 µM)
MIC [2]: 8 µg/mL (≈ 15 µM)
MIC [3]: 6.25 µg/mL (≈ 11.7 µM)
IC50 [4]: 12.2 nM
MIC [5]: 16 µg/mL (≈ 29.9 µM)

CO[C@H]1[C@@H](O)[C@H](n2ccc(=O)[nH]c2=O)O[C@@H]1[C@@H](O[C@H]1OC(C(=O)N[C@H]2CCCCNC2=O)=C[C@H](O)[C@@H]1O)C(N)=O [CAPURAMYCIN]
MIC [1]: 8 µg/mL (≈ 14 µM)
MIC [2]: 8 µg/mL (≈ 14 µM)
MIC [3]: 12.5 µg/mL (≈ 21.9 µM)
IC50 [6]: 17.6 nM
MIC [5]: 8 µg/mL (≈ 14 µM)

CCCCCCCOC(=O)O[C@@H]1[C@H](OC)[C@@H]([C@@H](O[C@H]2OC(C(=O)N[C@H]3CCC[C@@H](C)NC3=O)=C[C@H](O)[C@@H]2O)C(N)=O)O[C@H]1n1ccc(=O)[nH]c1=O
MIC [1]: 1 µg/mL (≈ 1.38 µM)
MIC [2]: 2 µg/mL (≈ 2.76 µM)
MIC [3]: 50 µg/mL (≈ 68.9 µM)
IC50 [4]: 276 nM
MIC [5]: 0.25 µg/mL (≈ 0.344 µM)

CCCCCCCCC(=O)O[C@@H]1[C@H](OC)[C@@H]([C@@H](O[C@H]2OC(C(=O)N[C@H]3CCCCNC3=O)=C[C@H](O)[C@@H]2O)C(N)=O)O[C@H]1n1ccc(=O)[nH]c1=O
MIC [3]: 12.5 µg/mL (≈ 17.6 µM)
IC50 [6]: 254 nM

CCCCCO[C@@H]1[C@H](OC)[C@@H]([C@@H](O[C@H]2OC(C(=O)N[C@H]3CCC[C@@H](C)NC3=O)=C[C@H](O)[C@@H]2O)C(N)=O)O[C@H]1n1ccc(=O)[nH]c1=O
MIC [1]: 4 µg/mL (≈ 6.12 µM)
MIC [2]: > 32 µg/mL
MIC [3]: 100 µg/mL (≈ 153 µM)
IC50 [4]: 76.5 nM
MIC [5]: > 32 µg/mL
